Laboratory results from patent US11180462B2, “Microbiocidal oxadiazole derivatives” (SYNGENTA PARTICIPATIONS AG, priority 2015, dated 2021).

Columns and labels:
[1] = tested on: Puccinia recondita f. Sp. Tritici; assay: Fungicidal activity against Puccinia recondita f. sp. tritici / wheat / leaf disc preventative (brown rust); format: in vivo; conditions: foliar, 200 ppm in the applied formulation, wheat leaf segments, preventative, compared to untreated control leaf disks, read-out: disease control
In short: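 Percent disease control relative to untreated check segments is scored once disease develops, 7 to 9 days after application. Wheat cv. Kanzler segments receive compound spray (200 ppm in formulation) one day before spore inoculation, then sit at 19° C. and 75% rh under 12 h light/12 h dark.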

[2] = tested on: Puccinia recondita f. Sp. Tritici; assay: Fungicidal activity against Puccinia recondita f. sp. tritici / wheat / leaf disc curative (brown rust); format: in vivo; conditions: foliar, 24 h, 200 ppm in the applied formulation, wheat leaf segments, curative (applied 1 day after inoculation), compared to untreated control leaf disks, read-out: disease control
In short: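 Wheat cv. Kanzler leaf segments on agar, inoculated with rust spore suspension, kept dark at 19° C and 75% RH; formulated compound sprayed 1 day post-inoculation. Incubated 19° C, 75% RH, 12 h light/12 h dark; percent disease control vs untreated scored 6 to 8 days after application.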

[3] = tested on: Glomerella lagenarium (Colletotrichum lagenarium); assay: Fungicidal activity against Glomerella lagenarium (Colletotrichum lagenarium) liquid culture / cucumber / preventative (anthracnose); format: cell-based; conditions: Colletotrichum orbiculare; 20 ppm in the applied formulation; liquid culture (PDB), growth inhibition measured photometrically after 3 to 4 days; compared to untreated control; read-out: disease control
In short: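 Percent activity against the untreated check was derived from photometric growth measurements made 2 to 7 days after conidia in potato dextrose broth were combined with compound at 20 ppm. Cultures were kept dark at 24 °C and 96% humidity.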

C=C(C)C(=O)N(Cc1ccc(-c2noc(C(F)(F)F)n2)cc1)CC1CCCO1 (stereo not drawn) [Compound 1.433, 2-methyl-N-(tetrahydrofuran-2-ylmethyl)-N-[[4-[5-(trifluoromethyl)-1,2,4-oxadiazol-3-yl]phenyl]methyl]-prop-2-enamide]
≥ 80%: pest or weed control at 200 ppm [1] | pest or weed control at 200 ppm [2] | inhibition of growth at 20 ppm [3]

C#CC(=O)N(Cc1ccc(-c2noc(C(F)(F)F)n2)cc1)CC1CCCO1 (stereo not drawn) [Compound 1.434, N-(tetrahydrofuran-2-ylmethyl)-N-[[4-[5-(trifluoromethyl)-1,2,4-oxadiazol-3-yl]phenyl]methyl] prop-2-ynamide]
≥ 80%: pest or weed control at 200 ppm [1] | pest or weed control at 200 ppm [2] | inhibition of growth at 20 ppm [3]

CC(=O)OCC(=O)N(Cc1ccc(-c2noc(C(F)(F)F)n2)cc1)CC1CCCO1 (stereo not drawn) [Compound 1.435, [2-oxo-2-[tetrahydrofuran-2-ylmethyl-[[4-[5-(trifluoromethyl)-1,2,4-oxadiazol-3-yl]phenyl]methyl]-amino]ethyl] acetate]
≥ 80%: pest or weed control at 200 ppm [1] | pest or weed control at 200 ppm [2] | inhibition of growth at 20 ppm [3]

CC1(C(=O)N(Cc2ccc(-c3noc(C(F)(F)F)n3)cc2)CC2CCCO2)COC1 (stereo not drawn) [Compound 1.438, 3-methyl-N-(tetrahydrofuran-2-ylmethyl)-N-[[4-[5-(trifluoromethyl)-1,2,4-oxadiazol-3-yl]phenyl)methyl]-oxetane-3-carboxamide]
≥ 80%: pest or weed control at 200 ppm [1] | pest or weed control at 200 ppm [2] | inhibition of growth at 20 ppm [3]

O=C(C1CCCO1)N(Cc1ccc(-c2noc(C(F)(F)F)n2)cc1)CC1CCCO1 (stereo not drawn) [Compound 1.442, N-(tetrahydrofuran-2-ylmethyl)-N-[[4-[5-(trifluoromethyl)-1,2,4-oxadiazol-3-yl]phenyl]methyl]-tetrahydrofuran-2-carboxamide]
≥ 80%: pest or weed control at 200 ppm [1] | pest or weed control at 200 ppm [2] | inhibition of growth at 20 ppm [3]

N#CC1(C(=O)N(Cc2ccc(-c3noc(C(F)(F)F)n3)cc2)CC2CCCO2)CC1 (stereo not drawn) [Compound 1.443, 1-cyano-N-(tetrahydrofuran-2-ylmethyl)-N-[[4-[5-(trifluoromethyl)-1,2,4-oxadiazol-3-yl]phenyl]methyl]-cyclopropane-carboxamide]
≥ 80%: pest or weed control at 200 ppm [1] | pest or weed control at 200 ppm [2] | inhibition of growth at 20 ppm [3]

COC(C)C(=O)N(Cc1ccc(-c2noc(C(F)(F)F)n2)cc1)CC1CCCO1 (stereo not drawn) [Compound 1.446, 2-methoxy-N-(tetrahydrofuran-2-ylmethyl)-N-[[4-[5-(trifluoromethyl)-1,2,4-oxadiazol-3-yl]phenyl]methyl]-propanamide]
≥ 80%: pest or weed control at 200 ppm [1] | pest or weed control at 200 ppm [2] | inhibition of growth at 20 ppm [3]

O=C(C1OCCO1)N(Cc1ccc(-c2noc(C(F)(F)F)n2)cc1)CC1CCCO1 (stereo not drawn) [Compound 1.447, N-(tetrahydrofuran-2-ylmethyl)-N-[[4-[5-(trifluoromethyl)-1,2,4-oxadiazol-3-yl]phenyl]methyl]-1,3-dioxolane-2-carboxamide]
≥ 80%: pest or weed control at 200 ppm [1] | pest or weed control at 200 ppm [2] | inhibition of growth at 20 ppm [3]

O=C(CC(F)(F)F)N(Cc1ccc(-c2noc(C(F)(F)F)n2)cc1)CC1CCCO1 (stereo not drawn) [Compound 1.448, 3,3,3-trifluoro-N-(tetrahydrofuran-2-ylmethyl)-N-[[4-[5-(trifluoromethyl)-1,2,4-oxadiazol-3-yl]phenyl]methyl]-propanamide]
≥ 80%: pest or weed control at 200 ppm [1] | pest or weed control at 200 ppm [2] | inhibition of growth at 20 ppm [3]

O=C(C1CC1)N(Cc1ccc(-c2noc(C(F)(F)F)n2)cc1)CC1CCCO1 (stereo not drawn) [Compound 1.450, N-(tetrahydrofuran-2-ylmethyl)-N-[[4-[5-(trifluoromethyl)-1,2,4-oxadiazol-3-yl]phenyl]methyl]-cyclopropane-carboxamide]
≥ 80%: pest or weed control at 200 ppm [1] | pest or weed control at 200 ppm [2] | inhibition of growth at 20 ppm [3]

CC(=O)N(Cc1ccc(-c2noc(C(F)(F)F)n2)cc1)CC1CCCO1 (stereo not drawn) [Compound 1.451, N-(tetrahydrofuran-2-ylmethyl)-N-[[4-[5-(trifluoromethyl)-1,2,4-oxadiazol-3-yl]phenyl]methyl]-acetate]
≥ 80%: pest or weed control at 200 ppm [1] | pest or weed control at 200 ppm [2] | inhibition of growth at 20 ppm [3]

COCCCC(=O)N(Cc1ccc(-c2noc(C(F)(F)F)n2)cc1)CC1CCCO1 (stereo not drawn) [Compound 1.452, 4-methoxy-N-(tetrahydrofuran-2-ylmethyl)-N-[[4-[5-(trifluoromethyl)-1,2,4-oxadiazol-3-yl]phenyl]methyl]-butanamide]
≥ 80%: pest or weed control at 200 ppm [1] | pest or weed control at 200 ppm [2] | inhibition of growth at 20 ppm [3]

COCCC(=O)N(Cc1ccc(-c2noc(C(F)(F)F)n2)cc1)Cc1ccco1 [Compound 1.456, N-(2-furylmethyl)-3-methoxy-N-[[4-[5-(trifluoromethyl)-1,2,4-oxadiazol-3-yl]phenyl]methyl]-propanamide]
≥ 80%: pest or weed control at 200 ppm [1] | pest or weed control at 200 ppm [2] | inhibition of growth at 20 ppm [3]

O=C(C1CCC1)N(Cc1ccc(-c2noc(C(F)(F)F)n2)cc1)Cc1ccco1 [Compound 1.458, N-(2-furylmethyl)-N-[[4-[5-(trifluoromethyl)-1,2,4-oxadiazol-3-yl]phenyl]methyl]-cyclobutane-carboxamide]
≥ 80%: pest or weed control at 200 ppm [1] | pest or weed control at 200 ppm [2] | inhibition of growth at 20 ppm [3]

COCC(=O)N(Cc1ccc(-c2noc(C(F)(F)F)n2)cc1)Cc1ccco1 [Compound 1.459, N-(2-furylmethyl)-2-methoxy-N-[[4-[5-(trifluoromethyl)-1,2,4-oxadiazol-3-yl]phenyl]methyl]-acetamide]
≥ 80%: pest or weed control at 200 ppm [1] | pest or weed control at 200 ppm [2] | inhibition of growth at 20 ppm [3]

CC1CC1C(=O)N(Cc1ccc(-c2noc(C(F)(F)F)n2)cc1)Cc1ccco1 (stereo not drawn) [Compound 1.460, N-(2-furylmethyl)-2-methyl-N-[[4-[5-(trifluoromethyl)-1,2,4-oxadiazol-3-yl]phenyl]methyl]-cyclopropane-carboxamide]
≥ 80%: pest or weed control at 200 ppm [1] | pest or weed control at 200 ppm [2] | inhibition of growth at 20 ppm [3]

CC(C)C(=O)N(Cc1ccc(-c2noc(C(F)(F)F)n2)cc1)Cc1ccco1 [Compound 1.463, N-(2-furylmethyl)-2-methyl-N-[[4-[5-(trifluoromethyl)-1,2,4-oxadiazol-3-yl]phenyl]methyl]-propanamide]
≥ 80%: pest or weed control at 200 ppm [1] | pest or weed control at 200 ppm [2] | inhibition of growth at 20 ppm [3]

CCCC(=O)N(Cc1ccc(-c2noc(C(F)(F)F)n2)cc1)Cc1ccco1 [Compound 1.465, N-(2-furylmethyl)-N-[[4-[5-(trifluoromethyl)-1,2,4-oxadiazol-3-yl]phenyl]methyl]-butanamide]
≥ 80%: pest or weed control at 200 ppm [1] | pest or weed control at 200 ppm [2] | inhibition of growth at 20 ppm [3]

COCCCC(=O)N(Cc1ccc(-c2noc(C(F)(F)F)n2)cc1)Cc1ccco1 [Compound 1.467, N-(2-furylmethyl)-4-methoxy-N-[[4-[5-(trifluoromethyl)-1,2,4-oxadiazol-3-yl]phenyl]methyl]-butanamide]
≥ 80%: pest or weed control at 200 ppm [1] | pest or weed control at 200 ppm [2] | inhibition of growth at 20 ppm [3]
